Data set [1] relates to HT-29. Description: Cytotoxicity against human HT-29 cells after 7 days. The format is functional. The conditions noted are these: for EC50: Homo sapiens, HT-29, 168 h, read-out: ED50 (the source's name).
Data set [2] relates to A549. As to the kind of experiment: Cytotoxicity against human A549 cells after 7 days. It is filed as functional. Conditions: for EC50: Homo sapiens, A549, 168 h, read-out: ED50 (the source's name).
In data set [3] the test system is MCF7. As to the kind of experiment: Cytotoxicity against human MCF7 cells after 7 days. The format is functional. The conditions noted are these: MCF7, 168 h, read-out: ED50 (the source's name).
Data set [4] in a line: Toxicity against brine shrimp larvae. Conditions: artemia, in vivo. The format is organism-based.
Data set [5] can be described thus: Growth inhibition of human RXF631 cells after 3 days. It is filed as functional. The conditions noted are these: RXF 631, 72 h.
For data set [6], the system named is M19-MEL. As to the kind of experiment: Growth inhibition of human M19-MEL cells after 3 days. It is filed as functional. The conditions noted are these: 72 h.
Data set [7] deals with SK-MEL-2. Description: Growth inhibition of human SK-MEL-2 cells after 3 days. It is filed as functional. Conditions: SK-MEL-2, 72 h.
Data set [8] deals with CAKI-1. Description: Growth inhibition of human Caki1 cells after 3 days. Conditions: CAKI-1, 72 h. The format is functional.
The subject of data set [9] is HOP-62. As to the kind of experiment: Growth inhibition of human HOP62 cells after 3 days. The format is functional. Conditions: HOP-62, 72 h.
Data set [10] deals with 786-0. As to the kind of experiment: Growth inhibition of human 786-0 cells after 3 days. The format is functional. The conditions noted are these: 786-0, 72 h.
For data set [11], the system named is OVCAR-8. As to the kind of experiment: Growth inhibition of human OVCAR8 cells after 3 days. Conditions: OVCAR-8, 72 h. It is filed as functional.
Data set [12] can be described thus: Growth inhibition of human LXFL529 cells after 3 days. Conditions: LXFL 529, 72 h. The format is functional.
The subject of data set [13] is A549. As to the kind of experiment: Growth inhibition of human A549 cells after 3 days. Conditions: A549, 72 h. The format is functional.
The subject of data set [14] is KM-20L2. Description: Growth inhibition of human KM20L2 cells after 3 days. It is filed as functional. The conditions noted are these: KM-20L2, 72 h.
Data set [15] relates to SNB-78. Description: Growth inhibition of human SNB78 cells after 3 days. The format is functional. The conditions noted are these: SNB-78, 72 h.
The test system of data set [16] is LOX IMVI. As to the kind of experiment: Growth inhibition of human LOXIMVI cells after 3 days. The format is functional. Conditions: 72 h.
The subject of data set [17] is MOLT-4. As to the kind of experiment: Growth inhibition of human MOLT4 cells after 3 days. It is filed as functional. The conditions noted are these: MOLT-4, 72 h.
The subject of data set [18] is NCI-H322M. As to the kind of experiment: Growth inhibition of human NCI-H322M cells after 3 days. The format is functional. The conditions noted are these: 72 h.
Data set [19] deals with DLD-1. As to the kind of experiment: Growth inhibition of human DLD1 cells after 3 days. It is filed as functional. Conditions: DLD-1, 72 h.
For data set [20], the system named is DMS-273. Description: Growth inhibition of human DMS273 cells after 3 days. It is filed as functional. Conditions: DMS-273, 72 h.
For data set [21], the system named is HCC 2998. As to the kind of experiment: Growth inhibition of human HCC2998 cells after 3 days. The format is functional. Conditions: HCC 2998, 72 h.
Data set [22] relates to A498. Description: Growth inhibition of human A498 cells after 3 days. It is filed as functional. Conditions: A498, 72 h.
The test system of data set [23] is TK-10. As to the kind of experiment: Growth inhibition of human TK10 cells after 3 days. The conditions noted are these: TK-10, 72 h. The format is functional.
Data set [24] concerns UACC-62. As to the kind of experiment: Growth inhibition of human UACC62 cells after 3 days. The format is functional. The conditions noted are these: UACC-62, 72 h.
Data set [25] relates to IGROV-1. Description: Growth inhibition of human IGROV1 cells after 3 days. The format is functional. Conditions: IGROV-1, 72 h.
Data set [26] has as its system M14. Description: Growth inhibition of human M14 cells after 3 days. The format is functional. Conditions: M14, 72 h.
For data set [27], the system named is NCI-H460. Description: Growth inhibition of human NCI-H460 cells after 3 days. The conditions noted are these: NCI-H460, 72 h. The format is functional.
Data set [28] relates to HOP-92. As to the kind of experiment: Growth inhibition of human HOP92 cells after 3 days. It is filed as functional. The conditions noted are these: HOP-92, 72 h.
Data set [29] has as its system SK-MEL-28. Description: Growth inhibition of human SK-MEL-28 cells after 3 days. Conditions: SK-MEL-28, 72 h. It is filed as functional.
Data set [30] deals with EKVX. Description: Growth inhibition of human EKVX cells after 3 days. The format is functional. The conditions noted are these: 72 h.
In data set [31] the test system is SN12C. Description: Growth inhibition of human SN12C cells after 3 days. It is filed as functional. Conditions: 72 h.
Data set [32] relates to SF-268. Description: Growth inhibition of human SF268 cells after 3 days. Conditions: SF-268, 72 h. It is filed as functional.
Data set [33] relates to SW-620. As to the kind of experiment: Growth inhibition of human SW620 cells after 3 days. The conditions noted are these: SW-620, 72 h. The format is functional.
Data set [34] relates to HT-29. Description: Growth inhibition of human HT-29 cells after 3 days. Conditions: HT-29, 72 h. It is filed as functional.
Data set [35] concerns SF-539. Description: Growth inhibition of human SF539 cells after 3 days. The conditions noted are these: SF-539, 72 h. It is filed as functional.
Data set [36] deals with SNB-75. Description: Growth inhibition of human SNB75 cells after 3 days. It is filed as functional. The conditions noted are these: SNB-75, 72 h.
Data set [37] deals with OVCAR-5. Description: Growth inhibition of human OVCAR5 cells after 3 days. Conditions: OVCAR-5, 72 h. It is filed as functional.
The test system of data set [38] is Malme-3M. Description: Growth inhibition of human MALME-3M cells after 3 days. It is filed as functional. Conditions: 72 h.
Data set [39] concerns SK-OV-3. As to the kind of experiment: Growth inhibition of human SKOV3 cells after 3 days. The format is functional. The conditions noted are these: SK-OV-3, 72 h.
Data set [40] concerns U-251. As to the kind of experiment: Growth inhibition of human U251 cells after 3 days. It is filed as functional. The conditions noted are these: U-251, 72 h.
In data set [41] the test system is CCRF-CEM. As to the kind of experiment: Growth inhibition of human CCRF-CEM cells after 3 days. The format is functional. The conditions noted are these: 72 h.
The subject of data set [42] is OVCAR-3. Description: Growth inhibition of human OVCAR-3 cells after 3 days. Conditions: OVCAR-3, 72 h. The format is functional.
Data set [43] relates to XF498. As to the kind of experiment: Growth inhibition of human XF498 cells after 3 days. The conditions noted are these: XF498, 72 h. The format is functional.
Data set [44] concerns SR. As to the kind of experiment: Growth inhibition of human SR cells after 3 days. It is filed as functional. Conditions: 72 h.
Data set [45] has as its system COLO 205. Description: Growth inhibition of human COLO205 cells after 3 days. The format is functional. Conditions: COLO 205, 72 h.

In brackets after ≈: the same amount, converted by molar mass.

Consider `O=C(/C=C/c1ccc(O)cc1)NCCc1ccc(O)cc1` [N-P-COUMAROYL TYRAMINE], for which the results for the EC50 in [1], in [2] and in data set [3] were 674 ng/mL (≈ 2380 nM), 3240 ng/mL (≈ 11400 nM) and 716 ng/mL (≈ 2530 nM), respectively. Besides, the LC50 (in general, the concentration lethal to half of the exposed cells or organisms) in data set [4] was 6700 ng/mL (≈ 23600 nM).

With `CCCCCCCCCC[C@@H](O)[C@H]1CC[C@@H]([C@H]2CC[C@H]([C@H](O)CCCCCCCCCC[C@@H](O)CC3=C[C@H](C)OC3=O)O2)O1` [TRILOBACIN], the GI50 (commonly the concentration giving 50% growth inhibition) was found to be 1800 nM in [5]; 0.00263 ng/mL (≈ 0.00422 nM) in data set [6]; 0.00228 ng/mL (≈ 0.00366 nM) in [7]; 0.00883 ng/mL (≈ 0.0142 nM) in data set [8]; 0.00234 ng/mL (≈ 0.00376 nM) in data set [9]; 0.0022 ng/mL (≈ 0.00353 nM) in [10]. Besides, the GI50 in [11] amounted to 0.00293 ng/mL (≈ 0.0047 nM); in data set [12], 0.00217 ng/mL (≈ 0.00348 nM); in [13] it was 0.00164 ng/mL (≈ 0.00263 nM); in data set [14] it was 0.00375 ng/mL (≈ 0.00602 nM); in [15] it was 2050 nM; in data set [16], 0.0012 ng/mL (≈ 0.00193 nM). For the same compound, the concentration for 50% growth inhibition (GI50) in data set [17] came to 0.00116 ng/mL (≈ 0.00186 nM); in data set [18], 4060 nM; in [19] it was 0.0027 ng/mL (≈ 0.00433 nM); in [20], 0.00177 ng/mL (≈ 0.00284 nM); in [21], 0.00292 ng/mL (≈ 0.00469 nM); in data set [22], 0.00686 ng/mL (≈ 0.011 nM). For the same compound, the GI50 in data set [23] is 7000 nM; in data set [24], 2670 nM; in data set [25], 0.00481 ng/mL (≈ 0.00772 nM); in [26], 0.0104 ng/mL (≈ 0.0167 nM); in data set [27], 0.00293 ng/mL (≈ 0.0047 nM); in [28], 0.00276 ng/mL (≈ 0.00443 nM). For the same compound, the GI50 in [29] was found to be 0.00201 ng/mL (≈ 0.00323 nM); in [30], 0.002 ng/mL (≈ 0.00321 nM); in data set [31], 1640 nM; in [32], 1700 nM; in data set [33], 2640 nM; in data set [34] it was 0.00216 ng/mL (≈ 0.00347 nM). Also, the GI50 in data set [35] is 0.00138 ng/mL (≈ 0.00222 nM); in [36], 0.00319 ng/mL (≈ 0.00512 nM); in data set [37], 4330 nM; in data set [38], 0.00144 ng/mL (≈ 0.00231 nM); in data set [39], 8200 nM; in data set [40] it was 4330 nM. The GI50 in data set [41] was found to be 0.0017 ng/mL (≈ 0.00273 nM); in data set [42] it was 0.00109 ng/mL (≈ 0.00175 nM); in data set [43], 0.00203 ng/mL (≈ 0.00326 nM); in data set [44], 1090 nM; in [45], 0.00349 ng/mL (≈ 0.0056 nM). Besides, the ED50 in [1] is given as <1 ×10⁻¹⁵ ug/ml; in [2], 8.02 ×10⁻⁴ ug/ml. Further, in [3], the EC50 stood at 329 ng/mL (≈ 528 nM). Moreover, the LC50 in data set [4] was determined as 8.7 ng/mL (≈ 14 nM).

As for `COc1cc([C@H]2OC[C@H]3[C@@H]2CO[C@@H]3c2cc(OC)c(O)c(OC)c2)cc(OC)c1O` [SYRINGARESINOL], the figures for the EC50 in data set [1], in data set [2] and in data set [3] were 15500 ng/mL (≈ 37000 nM), 14900 ng/mL (≈ 35600 nM) and 3690 ng/mL (≈ 8820 nM), respectively. This compound registered an LC50 in data set [4] of 13600 ng/mL (≈ 32500 nM).

As for `COc1cc(/C=C/C(=O)NCCc2ccc(O)cc2)ccc1O` [N-TRANS-FERULOYL TYRAMINE], the EC50 amounted to 23600 ng/mL (≈ 75300 nM) in data set [1], 13400 ng/mL (≈ 42600 nM) in data set [2] and 4760 ng/mL (≈ 15200 nM) in [3]. Further, in data set [4], the LC50 turned out to be 6700 ng/mL (≈ 21400 nM).

Values taken from ChEMBL document CHEMBL1159013, “Additional bioactive compounds and trilobacin, a novel highly cytotoxic acetogenin, from the bark of Asimina triloba” (J Nat Prod, 1992).
